Consider one compound from patent US20260217670A1, “CRYSTAL FORM OF BAXDROSTAT, AND PREPARATION METHOD THEREFOR AND USE THEREOF” (CRYSTAL PHARMACEUTICAL (SUZHOU) CO., LTD., priority 2023, published 2026).

Common to all, as to type: physicochemical
The nature of series [1]: Storage stability of Form CSI, purity by HPLC and crystalline form by XRPD. The protocol:
(§1) XRPD patterns in the present disclosure were acquired by a Bruker D8 DISCOVER X-ray powder diffractometer. The parameters of the X-ray powder diffraction method of the present disclosure are as follows: • X-Ray source: Cu, Kα • Kα1 (Å): 1.54060; Kα2 (Å): 1.54439 • Kα2/Kα1 intensity ratio: 0.50 • Voltage: 40 kV • Current: 40 mA • Scan range (20): from 4.0 degree to 40.0 degree
A certain amount of Form CSI prepared by the present disclosure was stored under conditions of 25° C./60% RH, 40° C./75% RH and 60° C./75% RH. The purity and crystalline form were checked by HPLC and XRPD. The results are listed in Table 3, and the XRPD overlay is substantially as depicted in FIG. 7 and FIG. 8. […] Under 60° C./75% RH, it remains stable for at least 1 month with its purity also essentially unchanged, indicating very good stability even under stress conditions.

Series [2] is described as follows: Wet ball milling (grinding stability). As to conditions: for Solid form after grinding: wet ball milling, 1800 rpm for 10 min. As to the method: as §1
A certain amount of Form CSI solid was placed in a centrifuge tube, and about 10 μL of corresponding solvent was added inside, along with a 5 mm grinding ball. The centrifuge tube containing the sample was installed on the GT300 vibration ball mill and subjected to wet ball milling at 1800 rpm for 10 min.

A short description of series [3]: DVS weight gain at various humidity (hygroscopicity / humidity stability). The protocol:
Purge gas: N2DVS data in the present disclosure were measured via an SMS (Surface Measurement Systems Ltd.) intrinsic DVS instrument. The instrument control software is DVS-Intrinsic control software. Typical parameters for DVS test are as follows: • Temperature: 25° C. • Gas and flow rate: N2, 200 mL/min • RH range: 0% RH to 95% RH
A certain amount of Form CSI was used to test the weight gain at various humidity by a DVS instrument. The weight gains at each relative humidity were recorded in a cycle of 60% RH-95% RH-0% RH-95% RH-0% RH. […] The XRPD overlay before and after DVS test is substantially as depicted in FIG. 11.

Setting [4] is: 25° C./60% RH, Open package, 6 months.
[5] abbreviates: 25° C./60% RH, Sealed package, 6 months.
Setting [6] is: 40° C./75% RH, Open package, 6 months.
[7] abbreviates: 40° C./75% RH, Sealed package, 6 months.
Setting [8] is: 60° C./75% RH, Open package, 1 month.
Where [9] appears, read: 60° C./75% RH, Sealed package, 1 month.
Setting [10] is: wet ball milling at 1800 rpm for 10 min, water or ethanol.

Consider `CCC(=O)N[C@@H]1CCCc2c(-c3ccc4c(c3)CCC(=O)N4C)cncc21` [Form CSI, (+)-(R)—N-(4-(1-methyl-2-oxo-1,2,3,4-tetrahydroquinolin-6-yl)-5,6,7,8-tetrahydroisoquinolin-8-yl) propionamide], for which the “Time Form CSI remains stable with purity essentially unchanged” value is “at least 6 months” in series [1] (25° C./60% RH), “at least 6 months” in series [1] (40° C./75% RH) and “at least 1 month” in series [1] (60° C./75% RH). Besides, the Purity is 99.27% in series [1] (setting [4]); 99.22% in series [1] (setting [5]); 99.26% in series [1] (setting [6]); 99.21% in series [1] (setting [7]); 99.26% in series [1] (setting [8]); 99.24% in series [1] (setting [9]). The Purity in series [1] (Initial) was 99.23%. The Solid form entry in series [1] (setting [4]), in series [1] (setting [5]), in series [1] (setting [6]), in series [1] (setting [7]), in series [1] (setting [8]) and in series [1] (setting [9]) was “Form CSI” in each case. The Solid form entry in series [1] (Initial) is recorded as “Form CSI”. Further, the “Crystalline form before and after wet ball milling” value in series [2] (setting [10]) is on record as “remains unchanged”. Besides, the “Crystallinity after wet ball milling” value in series [2] (setting [10]) was “no significant decrease”. The “Solid form after grinding” value in series [2] (Ethanol) and in series [2] (Water) was “Form CSI” each time. The “Form change before and after DVS test (XRPD)” value in series [3] (cycle of 60% RH-95% RH-0% RH-95% RH-0% RH) is “No form change”. In addition, in series [3] (from 60% RH to 80% RH, DVS, 25° C.), the Weight gain was determined as 0.34%.
